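Where inhibition never reached the appropriate level, the endpoint shown equals the highest concentration tested. Otherwise, values were interpolated linearly from a five-concentration, 48-hour dose response in 96-well plates. The concentration for full growth arrest is given as TGI.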
Columns and labels:
Assay in all cases: inhibition of tumour cell growth, NCI panel, 48 h
ACHN renal = system: ACHN renal
DU-145 prostate = system: DU-145 prostate
HCT-15 colon = system: HCT-15 colon
MCF7 breast = system: MCF7 breast
SF-295 CNS = system: SF-295 CNS
SK-MEL-28 melanoma = system: SK-MEL-28 melanoma
SK-OV-3 ovarian = system: SK-OV-3 ovarian
DMS 114 small cell lung = system: DMS 114 small cell lung
DMS 273 small cell lung = system: DMS 273 small cell lung
HOP-18 NSCLC = system: HOP-18 NSCLC
KM20L2 colon = system: KM20L2 colon
XF 498 CNS = system: XF 498 CNS
LXFL 529 NSCLC = system: LXFL 529 NSCLC

Structure (SMILES)	TGI (ACHN renal) [µM]	TGI (DU-145 prostate) [µM]	TGI (HCT-15 colon) [µM]	TGI (MCF7 breast) [µM]	TGI (SF-295 CNS) [µM]	TGI (SK-MEL-28 melanoma) [µM]	TGI (SK-OV-3 ovarian) [µM]	TGI (DMS 114 small cell lung) [µM]	TGI (DMS 273 small cell lung) [µM]	TGI (HOP-18 NSCLC) [µM]	TGI (KM20L2 colon) [µM]	TGI (XF 498 CNS) [µM]	TGI (LXFL 529 NSCLC) [µM]
CN(CCNC(=O)c1nn(C)c2c1Cc1ccccc1-2)CCNC(=O)c1nn(C)c2c1Cc1ccccc1-2	28.4	41.5	34.4	26	30.8	30.9	43.7	–	–	–	–	–	–
O=C1N[C@@H]([C@H]2CC[C@H](Cl)CN2)C(=O)N[C@H]1[C@H]1CC[C@H](Cl)CN1	1.5	23.8	57.5	7.25	5.36	31.1	2.31	10.6	7.35	139	63.9	0.819	–
O=C1C=C2SC3C[C@@]24CC1(O)[N+]1=c2c4c(c(O)c4c2=C(C=N4)CC1)N3	–	–	3.92	0.972	2.95	3.03	3.78	0.504	2.97	3.9	1.08	3.28	–
COC1=CC(=O)[C@@]2(C)C(C)[C@H](c3ccccc3)[C@H]2C1=O (some centres not stated)	> 100	–	> 100	–	> 100	> 100	> 100	–	> 100	–	> 100	> 100	> 100
Cc1cc2nc3c(N)nn(CCCN(C)C)c3nc2cc1C	> 100	> 100	> 100	> 100	> 100	> 100	> 100	–	–	–	–	–	–
O=C1OCc2nc3c(c(-c4ccccc4C(F)(F)F)c21)C(=O)OC3	> 100	–	> 100	–	> 100	> 100	> 100	> 100	> 100	> 100	> 100	–	> 100
COc1cc2c(c(O)c1OC)C(O)C1CCC(=O)N1C2c1ccc2c(c1)OCO2 (configuration not stated)	> 100	> 100	> 100	> 100	> 100	> 100	> 100	–	–	–	–	–	–
CCC(C)C(NC(=O)c1cccc2c(=O)c3ccccc3[nH]c12)C(=O)O (configuration not stated)	> 100	> 100	> 100	> 100	> 100	> 100	> 100	–	–	–	–	–	–
Cc1[nH]c2c(C)c3c([nH]c4ccc(Cl)cc43)c(C)c2c(=O)c1C	11.6	> 100	5.72	6.9	36.2	> 100	> 73.8	83.3	96.1	> 100	–	> 100	–
COc1ccc(/C=N/n2c(-c3ccccc3)n[nH]c2=O)c(OC)c1	> 75.5	> 100	> 100	> 100	> 100	> 100	> 74.6	–	–	–	–	–	–
C[N+]1(CC[N+]2(C)CCCC2c2cccnc2)CCCC1c1cccnc1 (configuration not stated)	> 100	> 100	> 100	> 100	> 100	> 100	> 100	–	–	–	–	–	–
Cc1cc2c3ccccc3n3c2c2c1OC1(C)CCC(C2C1)C3(C)C (configuration not stated)	> 25	–	> 25	–	–	> 25	> 25	> 25	> 25	–	> 25	> 25	> 25
O=C1c2ccccc2C(=O)c2c1ccc1c3ccccc3n(-c3ccccc3)c21	41.2	33.4	32.6	> 55.6	37.2	34.2	> 100	–	34.4	27.6	53.5	–	30.7
CCOC(=O)c1cccc(N=NNc2cccc(C(=O)OCC)c2)c1	> 100	> 100	> 100	> 100	45.4	> 100	93.4	–	–	–	–	–	–
COc1cc2c(cc1C)NC(=O)/C2=C/c1c(Cl)[nH]c2ccccc12	22.4	27	14.6	16.1	5.52	20.8	7.71	–	–	–	–	–	–
CCN(CC)C(=O)Cc1[nH][nH]c(=O)c1C(=O)N(CC)CC	> 100	–	> 100	–	> 100	> 100	> 100	> 100	> 100	> 100	> 100	> 100	> 100
CCN(CC)C(=O)N[C@@H](CC(C)C)C(=O)NC	> 100	> 100	> 100	> 100	> 100	> 100	> 100	–	–	–	–	–	–
CCC(CCCC[C@H]1CC[C@@H]2CC(=O)C[C@H]12)OC (some centres not stated)	> 100	> 100	> 100	> 100	> 100	> 100	> 100	–	–	–	–	–	–
NS(=O)(=O)c1ccc(Nc2c3ccccc3nc3c(C(=O)NC(CO)(CO)CO)cccc23)cc1	0.508	0.812	0.948	0.106	> 1	0.576	0.468	–	–	–	–	–	–
O=C1CC2(CCN(Cc3ccccc3)CC2)C(=O)N1N1CCCCC1	> 100	> 100	> 100	> 100	> 100	> 100	> 100	–	–	–	–	–	–

— PubChem BioAssay (NCI)
